Laboratory results reported in the kinase profiling compilation of Christmann-Franck et al. (2016).

What was measured:
Assay in all cases: Caliper, Mobility shift assay off-chip
FGFR4 (human) = FGFR4 (human) (UniProt P22455)
DCLK2 (human) = DCLK2 (human) (UniProt Q8N568)
MARK1 (human) = MARK1 (human) (UniProt Q9P0L2)
MARK3 (human) = MARK3 (human) (UniProt P27448)
CSNK1D (human) = CSNK1D (human) (UniProt P48730)
MAPK14 (human) = MAPK14 (human) (UniProt Q16539)
PDGFRA (human) = PDGFRA (human) (UniProt P16234)
PDGFRA (human), sequence (P16234 whole entry, looked up): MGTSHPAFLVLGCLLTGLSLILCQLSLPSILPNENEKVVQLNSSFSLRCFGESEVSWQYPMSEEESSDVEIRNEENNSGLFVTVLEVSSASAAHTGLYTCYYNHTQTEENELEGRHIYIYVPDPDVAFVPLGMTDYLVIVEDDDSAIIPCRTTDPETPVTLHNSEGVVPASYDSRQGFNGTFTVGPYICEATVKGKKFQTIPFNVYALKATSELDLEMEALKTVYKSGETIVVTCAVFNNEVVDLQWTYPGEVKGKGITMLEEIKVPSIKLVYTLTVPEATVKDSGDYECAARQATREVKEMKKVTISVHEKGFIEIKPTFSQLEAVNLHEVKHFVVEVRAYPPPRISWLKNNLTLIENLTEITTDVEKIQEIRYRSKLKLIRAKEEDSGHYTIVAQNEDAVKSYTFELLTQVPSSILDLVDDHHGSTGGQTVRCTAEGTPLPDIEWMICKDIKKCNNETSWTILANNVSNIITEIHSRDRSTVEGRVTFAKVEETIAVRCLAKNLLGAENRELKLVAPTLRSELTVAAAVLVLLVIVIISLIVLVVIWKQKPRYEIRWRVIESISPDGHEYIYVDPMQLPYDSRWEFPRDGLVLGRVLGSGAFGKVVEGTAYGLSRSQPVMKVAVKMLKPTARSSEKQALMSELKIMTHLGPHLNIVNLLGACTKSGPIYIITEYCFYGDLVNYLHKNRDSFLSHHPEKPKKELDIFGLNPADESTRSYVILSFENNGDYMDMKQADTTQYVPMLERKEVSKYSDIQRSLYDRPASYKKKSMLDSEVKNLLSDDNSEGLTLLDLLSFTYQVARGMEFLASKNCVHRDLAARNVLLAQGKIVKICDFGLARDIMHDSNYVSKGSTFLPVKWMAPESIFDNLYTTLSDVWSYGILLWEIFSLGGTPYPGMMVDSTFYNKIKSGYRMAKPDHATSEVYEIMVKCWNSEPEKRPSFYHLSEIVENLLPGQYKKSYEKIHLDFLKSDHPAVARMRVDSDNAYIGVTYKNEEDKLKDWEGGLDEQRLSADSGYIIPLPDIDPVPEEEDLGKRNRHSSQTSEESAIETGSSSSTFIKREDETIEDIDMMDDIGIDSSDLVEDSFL

[1] = system: FGFR2 (human), P21802 [N549H]
ABL1 (human) = ABL1 (human) (UniProt P00519)
MAPK13 (human) = MAPK13 (human) (UniProt O15264)
PRKACA (human) = PRKACA (human) (UniProt P17612)
AURKC (human) = AURKC (human) (UniProt Q9UQB9)
BRSK1 (human) = BRSK1 (human) (UniProt Q8TDC3)
BRSK1 (human), sequence (Q8TDC3 whole entry, looked up): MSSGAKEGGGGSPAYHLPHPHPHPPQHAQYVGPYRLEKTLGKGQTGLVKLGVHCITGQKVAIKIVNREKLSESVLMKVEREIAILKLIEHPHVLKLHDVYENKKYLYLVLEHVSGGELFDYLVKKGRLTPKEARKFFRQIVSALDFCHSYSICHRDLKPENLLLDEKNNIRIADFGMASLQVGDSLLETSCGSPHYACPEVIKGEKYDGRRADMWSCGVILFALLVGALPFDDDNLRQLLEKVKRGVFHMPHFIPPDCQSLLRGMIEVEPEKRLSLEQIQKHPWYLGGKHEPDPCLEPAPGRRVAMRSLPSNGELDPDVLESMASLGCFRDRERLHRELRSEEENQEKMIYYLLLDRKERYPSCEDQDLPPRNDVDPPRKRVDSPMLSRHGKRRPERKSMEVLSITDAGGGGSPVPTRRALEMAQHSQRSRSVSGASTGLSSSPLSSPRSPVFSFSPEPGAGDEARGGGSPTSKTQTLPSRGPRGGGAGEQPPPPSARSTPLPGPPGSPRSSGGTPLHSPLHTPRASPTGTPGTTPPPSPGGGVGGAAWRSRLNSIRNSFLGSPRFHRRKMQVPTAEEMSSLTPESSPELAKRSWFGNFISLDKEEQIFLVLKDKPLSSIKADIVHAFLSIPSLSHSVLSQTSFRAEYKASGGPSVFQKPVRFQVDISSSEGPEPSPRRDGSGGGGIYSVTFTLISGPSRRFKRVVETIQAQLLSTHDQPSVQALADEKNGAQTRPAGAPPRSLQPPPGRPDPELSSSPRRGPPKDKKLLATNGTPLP

RPS6KA5 KD1 KD2 (human) = RPS6KA5 KD1 KD2 (human) (UniProt O75582)
RPS6KA5 KD1 KD2 (human), sequence (O75582 whole entry, looked up): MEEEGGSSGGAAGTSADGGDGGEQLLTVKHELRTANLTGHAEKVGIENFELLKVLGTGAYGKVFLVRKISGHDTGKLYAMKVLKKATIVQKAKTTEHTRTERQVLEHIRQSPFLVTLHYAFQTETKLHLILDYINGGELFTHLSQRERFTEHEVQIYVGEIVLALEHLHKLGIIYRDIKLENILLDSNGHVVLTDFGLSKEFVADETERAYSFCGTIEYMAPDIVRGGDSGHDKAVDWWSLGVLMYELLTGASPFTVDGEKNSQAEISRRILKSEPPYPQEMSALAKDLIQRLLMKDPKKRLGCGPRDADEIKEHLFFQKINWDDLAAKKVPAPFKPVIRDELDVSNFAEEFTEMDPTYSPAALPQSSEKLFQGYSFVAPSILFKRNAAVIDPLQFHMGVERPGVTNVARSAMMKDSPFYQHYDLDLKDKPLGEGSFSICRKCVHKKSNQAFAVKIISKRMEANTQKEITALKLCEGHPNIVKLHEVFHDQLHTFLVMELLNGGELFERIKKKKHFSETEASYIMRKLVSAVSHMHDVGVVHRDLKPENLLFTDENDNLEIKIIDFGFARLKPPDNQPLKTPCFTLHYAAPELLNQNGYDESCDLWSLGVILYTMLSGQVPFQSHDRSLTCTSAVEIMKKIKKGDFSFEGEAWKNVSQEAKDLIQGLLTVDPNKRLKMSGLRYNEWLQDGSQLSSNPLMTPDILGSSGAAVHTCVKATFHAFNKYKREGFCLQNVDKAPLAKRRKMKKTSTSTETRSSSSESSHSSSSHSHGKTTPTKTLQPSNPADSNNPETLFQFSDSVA

PRKCZ (human) = PRKCZ (human) (UniProt Q05513)
MAP4K4 (human) = MAP4K4 (human) (UniProt O95819)
PRKCH (human) = PRKCH (human) (UniProt P24723)
IGF1R (human) = IGF1R (human) (UniProt P08069)
BRSK2 (human) = BRSK2 (human) (UniProt Q8IWQ3)
RPS6KB1 (human) = RPS6KB1 (human) (UniProt P23443)
PIM2 (human) = PIM2 (human) (UniProt Q9P1W9)
PRKCQ (human) = PRKCQ (human) (UniProt Q04759)
PRKCQ (human), sequence (Q04759 whole entry, looked up): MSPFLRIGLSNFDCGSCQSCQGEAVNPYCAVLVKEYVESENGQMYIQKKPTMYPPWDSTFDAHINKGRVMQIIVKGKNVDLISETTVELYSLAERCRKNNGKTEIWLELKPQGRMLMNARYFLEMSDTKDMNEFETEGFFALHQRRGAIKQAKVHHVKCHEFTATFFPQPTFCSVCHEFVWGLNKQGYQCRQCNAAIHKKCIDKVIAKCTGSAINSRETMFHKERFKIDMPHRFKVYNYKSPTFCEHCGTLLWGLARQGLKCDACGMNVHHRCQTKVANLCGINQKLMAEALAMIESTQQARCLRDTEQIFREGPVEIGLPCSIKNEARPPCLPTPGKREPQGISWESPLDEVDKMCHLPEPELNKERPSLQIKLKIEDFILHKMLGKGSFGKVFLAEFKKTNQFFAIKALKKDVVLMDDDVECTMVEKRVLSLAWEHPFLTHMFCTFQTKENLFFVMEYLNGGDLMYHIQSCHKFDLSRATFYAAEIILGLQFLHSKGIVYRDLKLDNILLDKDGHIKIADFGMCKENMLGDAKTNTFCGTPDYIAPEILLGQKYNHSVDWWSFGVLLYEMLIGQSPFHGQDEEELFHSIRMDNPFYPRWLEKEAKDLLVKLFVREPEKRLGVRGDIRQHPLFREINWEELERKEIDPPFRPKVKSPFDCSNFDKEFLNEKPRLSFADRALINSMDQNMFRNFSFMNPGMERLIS

MARK2 (human) = MARK2 (human) (UniProt Q7KZI7)
CSNK1A1 (human) = CSNK1A1 (human) (UniProt P48729)
BTK (human) = BTK (human) (UniProt Q06187)
TSSK2 (human) = TSSK2 (human) (UniProt Q96PF2)
[2] = system: ABL1 (human), P00519 [T315I]
FLT3 (human) = FLT3 (human) (UniProt P36888)
SGK3 (human) = SGK3 (human) (UniProt Q96BR1)
MAPK11 (human) = MAPK11 (human) (UniProt Q15759)
RPS6KA4 KD1 KD2 (human) = RPS6KA4 KD1 KD2 (human) (UniProt O75676)
MAPKAPK5 (human) = MAPKAPK5 (human) (UniProt Q8IW41)
KDR (human) = KDR (human) (UniProt P35968)

CSNK1D (human), sequence (P48730 whole entry, looked up): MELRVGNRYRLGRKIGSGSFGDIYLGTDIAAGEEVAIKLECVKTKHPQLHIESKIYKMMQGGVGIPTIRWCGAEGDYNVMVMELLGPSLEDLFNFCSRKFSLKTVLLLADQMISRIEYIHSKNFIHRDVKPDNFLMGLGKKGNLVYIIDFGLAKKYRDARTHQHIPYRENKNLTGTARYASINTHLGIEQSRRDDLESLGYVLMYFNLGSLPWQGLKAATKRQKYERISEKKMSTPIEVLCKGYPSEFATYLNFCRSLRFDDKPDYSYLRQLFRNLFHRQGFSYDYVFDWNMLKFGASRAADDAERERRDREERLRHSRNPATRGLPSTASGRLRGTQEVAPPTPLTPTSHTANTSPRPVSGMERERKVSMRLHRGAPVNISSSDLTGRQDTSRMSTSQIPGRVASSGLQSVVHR
MARK1 (human), sequence (Q9P0L2 whole entry, looked up): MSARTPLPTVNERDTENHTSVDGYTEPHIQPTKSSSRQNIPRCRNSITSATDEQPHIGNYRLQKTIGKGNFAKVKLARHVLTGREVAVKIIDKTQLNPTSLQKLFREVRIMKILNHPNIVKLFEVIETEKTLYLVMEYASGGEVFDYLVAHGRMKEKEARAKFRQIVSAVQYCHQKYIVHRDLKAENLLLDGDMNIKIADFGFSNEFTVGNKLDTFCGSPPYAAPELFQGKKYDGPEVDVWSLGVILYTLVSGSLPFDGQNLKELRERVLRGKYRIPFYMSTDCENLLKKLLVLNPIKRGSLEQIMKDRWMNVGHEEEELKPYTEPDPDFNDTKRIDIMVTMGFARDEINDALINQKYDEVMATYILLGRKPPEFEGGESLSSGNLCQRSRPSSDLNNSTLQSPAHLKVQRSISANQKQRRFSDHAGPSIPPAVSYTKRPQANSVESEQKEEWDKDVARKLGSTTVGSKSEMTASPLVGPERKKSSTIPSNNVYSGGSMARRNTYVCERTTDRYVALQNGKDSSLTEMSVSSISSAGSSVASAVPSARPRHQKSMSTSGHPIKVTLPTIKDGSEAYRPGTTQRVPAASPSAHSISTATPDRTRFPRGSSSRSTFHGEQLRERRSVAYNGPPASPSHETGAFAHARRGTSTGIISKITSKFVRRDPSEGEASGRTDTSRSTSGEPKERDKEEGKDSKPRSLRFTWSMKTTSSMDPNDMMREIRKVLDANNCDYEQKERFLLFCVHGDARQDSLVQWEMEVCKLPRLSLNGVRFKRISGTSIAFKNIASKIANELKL
MAPK14 (human), sequence (Q16539 whole entry, looked up): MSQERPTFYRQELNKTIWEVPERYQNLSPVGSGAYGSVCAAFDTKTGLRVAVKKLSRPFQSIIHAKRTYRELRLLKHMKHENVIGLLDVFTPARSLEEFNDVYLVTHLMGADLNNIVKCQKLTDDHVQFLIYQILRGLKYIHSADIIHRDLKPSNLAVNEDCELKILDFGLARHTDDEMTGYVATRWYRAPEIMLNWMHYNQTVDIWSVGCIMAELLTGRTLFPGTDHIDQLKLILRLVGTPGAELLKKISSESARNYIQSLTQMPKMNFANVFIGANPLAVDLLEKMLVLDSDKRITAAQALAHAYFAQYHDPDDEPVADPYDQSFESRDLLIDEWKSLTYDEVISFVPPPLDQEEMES

## CN(c1ccc2ccc3ncc(-c4cnn(C)c4)cc3c(=O)c2c1)S(=O)(=O)NCc1ccccn1
FGFR4 (human); compound 0.1 µM
  inhibition: 8.9%
FGFR4 (human); compound 1.0 µM
  inhibition: 22.4%
DCLK2 (human); compound 0.1 µM
  inhibition: 8.6%
DCLK2 (human); compound 1.0 µM
  inhibition: 4.1%
MARK1 (human); compound 0.1 µM
  inhibition: 6.6%
MARK1 (human); compound 1.0 µM
  inhibition: 16.4%
MARK3 (human); compound 0.1 µM
  inhibition: -1.8%
MARK3 (human); compound 1.0 µM
  inhibition: 5.3%
CSNK1D (human); compound 0.1 µM
  inhibition: 3.5%
CSNK1D (human); compound 1.0 µM
  inhibition: 8.9%
MAPK14 (human); compound 0.1 µM
  inhibition: -4.5%
MAPK14 (human); compound 1.0 µM
  inhibition: 1.9%
PDGFRA (human); compound 0.1 µM
  inhibition: -13.5%
PDGFRA (human); compound 1.0 µM
  inhibition: 31.2%
[1]; compound 0.1 µM
  inhibition: 16%
[1]; compound 1.0 µM
  inhibition: 57.6%
ABL1 (human); compound 0.1 µM
  inhibition: 8.2%
ABL1 (human); compound 1.0 µM
  inhibition: 36.3%
MAPK13 (human); compound 0.1 µM
  inhibition: -0.3%
MAPK13 (human); compound 1.0 µM
  inhibition: 9.8%
PRKACA (human); compound 0.1 µM
  inhibition: -11.5%
PRKACA (human); compound 1.0 µM
  inhibition: -3.3%
AURKC (human); compound 0.1 µM
  inhibition: 31.7%
AURKC (human); compound 1.0 µM
  inhibition: 75.8%
BRSK1 (human); compound 0.1 µM
  inhibition: 3.3%
BRSK1 (human); compound 1.0 µM
  inhibition: 0.5%
RPS6KA5 KD1 KD2 (human); compound 0.1 µM
  inhibition: -3.5%
RPS6KA5 KD1 KD2 (human); compound 1.0 µM
  inhibition: 8.1%
PRKCZ (human); compound 0.1 µM
  inhibition: 1.7%
PRKCZ (human); compound 1.0 µM
  inhibition: 3.7%
MAP4K4 (human); compound 0.1 µM
  inhibition: 18.6%
MAP4K4 (human); compound 1.0 µM
  inhibition: 56.3%
PRKCH (human); compound 0.1 µM
  inhibition: 10%
PRKCH (human); compound 1.0 µM
  inhibition: 3.2%
IGF1R (human); compound 0.1 µM
  inhibition: -12.2%
IGF1R (human); compound 1.0 µM
  inhibition: -0.8%
BRSK2 (human); compound 0.1 µM
  inhibition: -0.7%
BRSK2 (human); compound 1.0 µM
  inhibition: 6.6%
RPS6KB1 (human); compound 0.1 µM
  inhibition: -1%
RPS6KB1 (human); compound 1.0 µM
  inhibition: -6.2%
PIM2 (human); compound 0.1 µM
  inhibition: 1.2%
PIM2 (human); compound 1.0 µM
  inhibition: 5.1%
PRKCQ (human); compound 0.1 µM
  inhibition: -2.9%
PRKCQ (human); compound 1.0 µM
  inhibition: -2%
MARK2 (human); compound 0.1 µM
  inhibition: -3.7%
MARK2 (human); compound 1.0 µM
  inhibition: 12.6%
CSNK1A1 (human); compound 0.1 µM
  inhibition: -7.8%
CSNK1A1 (human); compound 1.0 µM
  inhibition: 7.2%
BTK (human); compound 0.1 µM
  inhibition: 4.7%
BTK (human); compound 1.0 µM
  inhibition: 4.9%
TSSK2 (human); compound 0.1 µM
  inhibition: -3.3%
TSSK2 (human); compound 1.0 µM
  inhibition: -0.8%
[2]; compound 0.1 µM
  inhibition: 3.3%
[2]; compound 1.0 µM
  inhibition: 41.1%
FLT3 (human); compound 0.1 µM
  inhibition: 13.7%
FLT3 (human); compound 1.0 µM
  inhibition: 62.9%
SGK3 (human); compound 0.1 µM
  inhibition: -5.3%
SGK3 (human); compound 1.0 µM
  inhibition: 1.1%
MAPK11 (human); compound 0.1 µM
  inhibition: -0.1%
MAPK11 (human); compound 1.0 µM
  inhibition: -5.4%
RPS6KA4 KD1 KD2 (human); compound 0.1 µM
  inhibition: -2.2%
RPS6KA4 KD1 KD2 (human); compound 1.0 µM
  inhibition: 7.4%
MAPKAPK5 (human); compound 0.1 µM
  inhibition: 10.5%
MAPKAPK5 (human); compound 1.0 µM
  inhibition: 3%
KDR (human); compound 0.1 µM
  inhibition: 33.2%
KDR (human); compound 1.0 µM
  inhibition: 93.1%
